# Laboratory results taken from publication PMC11778240, “Synthesis and preclinical evaluation of tigilanol tiglate analogs as latency-reversing agents for the eradication of HIV” (Science Advances, 2025).
# Experiments:
# HIV = conditions: HIV-infected, ART-treated humanized mice, cited from earlier work
# J-Lat clone 10.6 cells = assay: J-Lat HIV latency reversal assay (GFP expression); assay type: cell-based, Human; conditions: J-Lat 10.6; for HIV latency reversal time course in words: over 48 hours
# Text: Having shown that our lead compounds bind cell-free PKC isoforms, enter cells, translocate PKC-GFP fusion proteins, and activate NF-κB transcription factors, we next set out to determine whether our analogs were capable of reversing HIV from latency. We performed in vitro assays using T lymphocyte J-Lat clone 10.6, which contains a latent near full-length replication-incompetent integrated HIV DNA genome ([72]). J-Lat 10.6 lacks two viral genes, env and nef, which encode for the envelope protein and an accessory protein, respectively, and thus cannot initiate a spreading HIV infection. The integrated HIV provirus also encodes a GFP reporter gene, allowing latency reversal to be measured by quantification of GFP expression (fig. S1). […] In this latency reversal assay, we quantified GFP expression 48 hours after compound addition and observed bryostatin 1 to be maximally effective at concentrations of 40 nM or higher with latency reversal in 12% of cells (Fig. 8). Given the efficacy of bryostatin 1 as an LRA ([73], [74]), EBC-46 and many of its analogs tested in this J-Lat assay induced latency reversal in >90% of cells. […] SUW427, an esterase-releasable prodrug of EBC-46, also performed similarly to EBC-46 with a maximum efficacy of latency reversal in >90% of cells at a dose of 250 nM. […] The gradual release of EBC-46 from its prodrug form provides an alternative mode of administration that avoids the bolus effect associated with rapid drug administration ([17]). […] This is consistent with its lack of activity in the NF-κB activation assay and its design as a negative control as it is structurally similar to EBC-46 but unable to bind to the C1 domain of PKC at the concentrations used in this assay as it lacks a complete pharmacophore.
# HIV latency reversal in-vitro assay
# Human T Lymphocyte J-Lat Full Length Cell Line 10.6 (cat #9849) was obtained through the NIH HIV Reagent Program, Division of AIDS, NIAID, NIH and was contributed to the NIH HIV Reagent Program by Dr. Eric Verdin (70). J-Lat 10.6 cells were plated at 5 × 10^5 cells in 180 μL of RF10 media consisting of RPMI media supplemented with 1% Penicillin/Streptomycin and 10% Fetal Bovine Serum (FBS) in 96 -well U -bottom plates. J -Lat 10.6 cells were then stimulated for 48 hr by adding 20 μL of newly designed and synthesized tigilanol tiglate analogs, PKC modulators (bryostatin 1) as our positive control or med ia only (mock) as our negative control. Our negative control was RF10 media as the tigilanol tiglate analogs were freshly diluted with RF10 prior to plating. The final volume was 200 μL per well. Experiments were performed in three independent biological replicates, each completed in technical duplicates (n = 6). After 48 hr stimulation, 96 - well U -bottom plates were centrifuged at 296 RCF for 7 minutes to pellet cells, which were resusp ended in 200 μL of freshly prepared 2% paraformaldehyde (PFA) in PBS. GF P expression was measured 24 -hours post -fixation using the FITC channel on a LSR Fortessa (BD Biosciences) flow cytometer. Data analysis was conducted with FlowJo software version 10.8.1.
# NF-κB pathway = assay: NF-κB activation assay, A549 cells with SEAP reporter; assay type: cell-based, Human; conditions: 24 hours after dosing, A549 cells
# Text: As a high-throughput method of screening compounds for their ability to get into cells and activate immunological pathways related to HIV latency reversal ([46], [70]), we conducted an NF-κB reporter assay using A549 cells stably integrated with a secreted embryonic alkaline phosphatase reporter under the control of a promoter fused to five NF-κB binding sites (Fig. 7B) ([48], [70], [71]).
# Human A549-Dual™ Cells supplied by InvivoGen (Cat. code a549d-nfis) and CHO-K1 cells were passaged when about 90% confluency was reached (approximately every three days). With each passage, media was aspirated from the cell layer, which was then washed with PBS. Following aspiration of the PBS, cells were detached from the culture flask with 0.25% GibcoTM Trypsin-EDTA and transferred to a 50 mL conical, which was volumed up with complete pre-warmed DMEM (4.5 g/L glucose, 10% FBS, and 1% Pen-Strep-Glutamine (100 X, 50 mg/mL)) or Ham's F-12K (Kaighn's) Medium supplemented with 10% FBS and 1% Pen-Strep (100 X, 50 mg/mL).
# This conical was spun down at 1800 rpm for 3 minutes, the supernatant was removed, and cells were resuspended in their respective fresh, pre-warmed media. To count cells, 10 μL of resuspended cells were added to a sterile microcentrifuge tube and mixed with 10 μL of trypan blue after which 10 μL of the mixture was pipetted into a Countess chamber slide. A Countess™ 3 Automated Cell Counter was subsequently utilized to determine cell viability and concentration.
# 1 x 10^6 cells were seeded with each passage into a T75 culture flask, and cells were incubated at […]
# Human A549 lung carcinoma cells (InvivoGen Cat. code a549d-nfis), stably integrated with a secreted embryonic alkaline phosphatase (SEAP) reporter, allow for the activity of the NF-κB pathway to be monitored. The SEAP reporter is under control of the interferon β (IFN-β) minimal promoter, which is fused to five NF-κB binding sites.
# 5 × 10^4 A549 cells were plated on Corning® 96 Well TC-Treated Microplates (CLS3595) in 180 μl of pre-warmed DMEM (4.5 g/L glucose, 10% heat-inactivated FBS (30 min at 56 ℃), and 1% Pen-Strep-Glutamine (100 X, 50 mg/mL)). Note that if cells were grown in media containing FBS that is not heat-inactivated, media will contain alkaline phosphatase. In this case, all supernatant must thoroughly be aspirated from the cell pellet obtained after centrifugation before resuspending cells in media containing heat inactivated FBS for plating. Following incubation at 37 °C in 5% CO2 for approximately 24 hours to allow for cell adherence onto the 96 well plate, 1.8 μL of each compound dissolved in DMSO was added in quadruplicate to their respective wells to achieve a final compound concentration of 1500 nM, 500 nM, or 50 nM. 1.8 μL of DMSO was added to wells as negative controls while wells treated with EBC-46 served as positive controls. 24 hours following compound addition, 180 μL of QUANTI-BlueTM Solution (InvivoGen Cat. code rep-qbs)- medium containing QB buffer and QB Reagent for detection and quantification of alkaline phosphatase- were added into wells on a new clear flat-bottom 96-well plate. 20 μL of supernatant of either SEAP-expressing cells incubated with compound or SEAP-expressing cells incubated with DMSO only were added to the wells in the new 96-well plate containing QUANTI-BlueTM Solution. Supernatant and QUANTI-BlueTM Solution were incubated at 37 °C in 5% CO2 for approximately an hour and a half. Following incubation, optical density (OD) at 630 nm was measured for each well using a BioTek Synergy H1 microplate reader under normal read speed and with a delay of 100 msec.
# latent HIV = conditions: cited from earlier work
compound,measurement,setting,value
C=C1C[C@H]2C[C@]3(O)O[C@H](C[C@@H](O)CC(=O)O[C@@H](CO)C[C@@H]4C/C(=C\C(=O)OC)[C@H](OC(=O)CCCCCCC)[C@@](O)(O4)C(C)(C)/C=C/[C@@H](C1)O2)C[C@H](OC(C)=O)C3(C)C [SUW133],animals not rebounding in vivo after ART discontinuation,HIV; with natural killer cells as kill arm,40%
same,effect on HIV rebound in words,HIV; administered alone,capable of delaying rebound when administered alone
CC=C(C)C(=O)OC1C(C)C2(O)C(C3OC3(COC(=O)OCc3ccc(OC(=O)OC)cc3)C(O)C3(O)C(=O)C(C)=CC32)C2C(C)(C)C12OC(=O)C(C)CC (centres unmarked) [SUW427],HIV latency reversal time course in words,J-Lat clone 10.6 cells; 100 nM,clear delayed HIV latency reversal
same,"maximal latency reversal, % of cells","J-Lat clone 10.6 cells; 250 nM, 48 hours",> 90 % of cells
same,HIV latency reversal time course in words,J-Lat clone 10.6 cells; 250 nM,almost converged with its parent compound at all time points and reached maximal latency reversal
same,"NF-κB activation (optical density, 630 nm)",NF-κB pathway; 50 nM,"0.33 optical density, 630 nm"
same,"NF-κB activation (optical density, 630 nm)",NF-κB pathway; 500 nM,"0.64 optical density, 630 nm"
"CCC/C=C/C=C/C(=O)O[C@H]1/C(=C/C(=O)OC)C[C@H]2C[C@H]([C@@H](C)O)OC(=O)C[C@H](O)C[C@@H]3C[C@H](OC(C)=O)C(C)(C)[C@](O)(C[C@@H]4C/C(=C/C(=O)OC)C[C@H](/C=C/C(C)(C)[C@]1(O)O2)O4)O3 [bryostatin 1, reference compound]","latency reversal, % of cells","J-Lat clone 10.6 cells; maximally effective at 40 nM or higher, 48 hours",12 % of cells
same,"NF-κB activation (optical density, 630 nm)",NF-κB pathway; 50 nM,"0.47 optical density, 630 nm"
same,"NF-κB activation (optical density, 630 nm)",NF-κB pathway; 500 nM,"0.41 optical density, 630 nm"
prostratin-C13-naphthyl acetate,potency as an LRA relative to prostratin,latent HIV,> 130 fold
